Structures can show the parent of a compound that is named as a salt.
Tested on: endothelin receptor (crude receptor membrane preparation of porcine aorta)
Test: Radioligand binding assay: 125I-endothelin-1 binding to porcine aorta membrane
Conditions: ^125 I-Endothelin-1 1.67×10^-11 M, room temperature, 60 minutes, read-out: Effect on specific binding of ^125 I-endothelin-1 in porcine aorta membrane, IC50
Protocol: Radioligand binding assay:
(a) Crude receptor membrane preparation:
Porcine aorta was purchased from Pel-Freez Biologicals (U.S.A.) and stored at -80° C. until use.
Porcine aorta (50 g) was thawed and dissected free from fatty tissue, minced with scissors and then homogenized with a polytron (Brinkmann PT-20, maximal speed for 3×10 sec) in 100 ml buffer (0.25M sucrose, 10 mM Tris-HCl, 0.1 mM EDTA).
The homogenate was centrifuged at 10,000 g for 20 minutes at 4° C.
The supernatant, containing the plasma membrane fraction, was centrifuged at 100,000 g for 60 minutes at 4° C., and then resultant pellets were referred to as crude membrane fractions.
The pellets were resuspended in 25 ml of binding assay buffer (50 mM Tris-HCl, 100 mM NaCl, 5 mM MgCl2, 1.5 μg/ml phenylmethylsulfonyl fluoride (PMSF), 120 μg/ml bacitracin, 12 μg/ml leupepcin, 6 μg/ml chymostain, 0.1% bovine serum albumin (BSA), pH 7.5).
The aorta membrane fractions were stored at -80° C. until use.
(b) ^125 I-endothelin-1 binding assay: […]
After incubation, the incubation mixture were filtered through Glass-fiber GF/C filter (pretreated with 0.1% polyethylene imine for 3 hours prior to use) using cell harvester (Brandel M-24S). […] The filters were counted in a gamma counter (Packard Auto Gamma Model 5650).

IC50: 5.2 nM
SMILES: CC(C)C[C@H](CC(=O)N1CCCCC1)C(=O)N[C@H](Cc1cn(C)c2ccccc12)C(=O)N[C@H](Cc1ccccn1)C(N)=O [Compound A, [(2R)-2-(Piperidinocarbonyl)methyl-4-methylvaleryl]-D-TrP(Me)-D-Pya-NH2 hydrochloride]
